From patent US20080108686A1, “N-(Ortho-Phenyl)-1-Methyl-3-Difluoromethylpyrazole-4-Carboxanilides And Their Use As Fungicides” (BASF Aktiengesellschaft, priority 2004, published 2008)

What was measured:
[1] = test system: Puccinia recondita; assay: Use Example 1: curative activity against brown rust of wheat; assay type: in vivo; conditions: curative spray 1 day after inoculation, wheat cultivar Kanzler, assessed after 7 days, untreated 90%
Protocol: (§1) The active compounds, separately or jointly, were prepared as a stock solution comprising 25 mg of active compound which was made up to 10 ml using a mixture of acetone and/or DMSO and the emulsifier Uniperol® EL (welting agent having an emulsifying and dispersing action based on ethoxylated alkylphenols) in a ratio by volume of solvent/emulsifier of 99:1. The mixture was then made up to 100 ml with water. This stock solution was diluted with the solvent/emulsifier/water mixture described to give the concentration of active compound stated below. Alternatively, the active compounds were employed as a commercial finished formulation and diluted with water to the stated concentration of active compound.
(§2) Curative Activity Against Brown Rust of Wheat Caused by Puccinia recondita
Leaves of polted wheat seedlings of the cultivar “Kanzler” were inoculated with a spore suspension of brown rust (Puccinia recondita). The pots were then placed into a chamber with high atmospheric humidity (90-95%) at 20-22° C. for 24 hours. During this time, the spores germinated and the germ tubes penetrated into the leaf tissue. The next day, the infected plants were sprayed to runoff point with an aqueous suspension having the concentration of active compound stated below. The suspension or emulsion was prepared as described above. After the spray coating had dried on, the test plants were cultivated in a greenhouse at temperatures between 20 and 22° C. and at 65 to 70% relative atmospheric humidity for 7 days. The extent of the rust fungus development on the leaves was then determined.

[2] = test system: Botrytis cinerea; assay: Use Example 2a: activity against gray mold on bell pepper leaves, protective application; assay type: in vivo; conditions: protective spray 1 day before inoculation, bell pepper seedlings, assessed after 5 days, untreated 90%
Protocol: as §1
Activity against gray mold on bell pepper leaves caused by Botrytis cinerea, protective application Bell pepper seedlings of the cultivar “Neusiedler Ideal Elite” were, after 2-3 leaves were well developed, sprayed to runoff point with an aqueous suspension having the concentration of active compound stated below. The next day, the treated plants were inoculated with a spore suspension of Botrytis cinerea which comprised 1.7×10^6 spores/ml in a 2% strength aqueous biomalt solution. The test plants were then placed into a dark climatized chamber at 22-24° C. and high atmospheric humidity. After 5 days, the extent of the fungal infection on the leaves could be determined visually in %.

[3] = test system: Puccinia recondita; assay: Comparative Test 1: curative activity against brown rust of wheat; assay type: in vivo; conditions: curative spray 1 day after inoculation, wheat cultivar Kanzler, assessed after 7 days, comparison with Comp. 35 of EP-A 0 589301, untreated 90%
Protocol: as §1, §2
Comp. 35 of EP-A 0 589301 was compared to the compounds 67.1-67.14 according to the invention of table 67. Leaves of potted wheat seedlings of the cultivar “Kanzler” were inoculated with a spore suspension of brown rust (Puccinia recondita). The pots were then placed into a chamber with high atmospheric humidity (90-95%) at 20-22° C. for 24 hours. During this time, the spores germinated and the germ tubes penetrated into the leaf tissue. The next day, the infected plants were sprayed to runoff point with an aqueous suspension having the concentration of active compound stated below. The suspension or emulsion was prepared as described above. After the spray coating had dried on, the test plants were cultivated in a greenhouse at temperatures between 20 and 22° C. and at 65 to 70% relative atmospheric humidity for 7 days. The extent of the rust fungus development on the leaves was then determined.

[4] = test system: Leptosphaeria nodorum; assay: Comparative Test 2: activity against leaf blotch on wheat; assay type: in vivo; conditions: protective spray 1 day before inoculation, wheat cultivar Kanzler, assessed after 8 days, untreated 80%
Protocol: as §1
Activity Against Leaf Blotch on Wheat Caused by Leptosphaeria nodorum
Comp. 35 of EP-A 0 589301 was compared to the compounds 67.1-67.14 according to the invention of table 67. Pots of wheat plants of the cultivar “Kanzler” was sprayed to runoff point with an aqueous suspension having the concentration of active compound stated below. The next day, the pots were inoculated with an aqueous spore suspension of Leptosphaeria nodorum (syn. Stagonospora nodorum, Septoria nodorum). The plants were then placed into a chamber at 20° C. and maximum atmospheric humidity. After 8 days, the leaf blotch on the untreated but infected control plants had developed to such an extent that the infection could be determined visually in %.

[5] = test system: Pyrenophora teres; assay: Use Example 2b: activity against net blotch of barley, 1 day protective application; assay type: in vivo; conditions: protective spray 24 hours before inoculation, barley seedlings, assessed after 6 days, untreated 90%
Protocol: as §1
Activity Against Net Blotch of Barley Caused byPyrenophora teres, 1 day Protective Application
Leaves of potted barley seedlings were sprayed to runoff point with an aqueous suspension having the concentration of active compound stated below. 24 hours after the spray coating had dried on, the test plants were inoculated with an aqueous spore suspension of Pyrenophora [syn. Drechslera] teres, the net blotch pathogen. The test plants were then placed into a greenhouse at temperatures between 20 and 24° C. and 95 to 100% relative atmospheric humidity. After 6 days, the extent of the development of the disease was determined visually in % infection of the total leaf area.

## Cn1cc(C(=O)Nc2ccccc2-c2cc(F)ccc2F)c(C(F)F)n1 [Compound 67.6]
[1]
  Infection at PUCCRT K1 at 250 ppm (%): 0%
[2]
  Infection at BOTRCI P1 at 250 ppm (%): 10%
[3]
  Infection at PUCCRT K1 at 250 ppm (%): 0%
[4]
  Infection at LEPTNO P1 at 250 ppm (%): 3%

## Cn1cc(C(=O)Nc2ccccc2-c2ccc(F)c(Cl)c2)c(C(F)F)n1 [Compound 67.2]
[1]
  Infection at PUCCRT K1 at 250 ppm (%): 0%
[2]
  Infection at BOTRCI P1 at 250 ppm (%): 0%
[3]
  Infection at PUCCRT K1 at 250 ppm (%): 0%
[4]
  Infection at LEPTNO P1 at 250 ppm (%): 3%

## Cc1cc(-c2ccccc2NC(=O)c2cn(C)nc2C(F)F)ccc1F [Compound 67.11]
[1]
  Infection at PUCCRT K1 at 250 ppm (%): 0%
[2]
  Infection at BOTRCI P1 at 250 ppm (%): 0%
[3]
  Infection at PUCCRT K1 at 250 ppm (%): 0%

## Cn1cc(C(=O)Nc2ccccc2-c2ccc(F)cc2F)c(C(F)F)n1 [Compound 67.13]
[1]
  Infection at PUCCRT K1 at 250 ppm (%): 0%
[5]
  Infection at PYRNTE P1 at 250 ppm (%): 5%
[3]
  Infection at PUCCRT K1 at 250 ppm (%): 0%
[4]
  Infection at LEPTNO P1 at 250 ppm (%): 3%

## Cc1cc(Cl)ccc1-c1ccccc1NC(=O)c1cn(C)nc1C(F)F [Compound 67.8]
[1]
  Infection at PUCCRT K1 at 250 ppm (%): 0%
[2]
  Infection at BOTRCI P1 at 250 ppm (%): 0%
[3]
  Infection at PUCCRT K1 at 250 ppm (%): 0%

## Cn1cc(C(=O)Nc2ccccc2-c2ccc(Cl)c(Cl)c2)c(C(F)F)n1 [Compound 67.4, 3-difluoromethyl-1-methyl-N-(ortho-(3,4-dichlorophenyl)phenyl)-pyrazole-4-carboxamide]
[1]
  Infection at PUCCRT K1 at 250 ppm (%): 0%
[2]
  Infection at BOTRCI P1 at 250 ppm (%): 0%
[3]
  Infection at PUCCRT K1 at 250 ppm (%): 0%
[4]
  Infection at LEPTNO P1 at 250 ppm (%): 3%
other
  melting point: 129 to 130 °C

## Cn1cc(C(=O)Nc2ccccc2-c2ccc(F)c(F)c2)c(C(F)F)n1 [Compound 67.3]
[1]
  Infection at PUCCRT K1 at 250 ppm (%): 0%
[2]
  Infection at BOTRCI P1 at 250 ppm (%): 1%
[3]
  Infection at PUCCRT K1 at 250 ppm (%): 0%
[4]
  Infection at LEPTNO P1 at 250 ppm (%): 7%

## Cn1cc(C(=O)Nc2ccccc2-c2ccccc2)c(C(F)F)n1 [reference compound]
[3]
  Infection at PUCCRT K1 at 250 ppm (%): 25%
[4]
  Infection at LEPTNO P1 at 250 ppm (%): 80%

## Cc1cc(-c2ccccc2NC(=O)c2cn(C)nc2C(F)F)ccc1Cl [Compound 67.9]
[1]
  Infection at PUCCRT K1 at 250 ppm (%): 3%
[2]
  Infection at BOTRCI P1 at 250 ppm (%): 0%
[3]
  Infection at PUCCRT K1 at 250 ppm (%): 3%

## Cc1cc(F)ccc1-c1ccccc1NC(=O)c1cn(C)nc1C(F)F [Compound 67.10]
[1]
  Infection at PUCCRT K1 at 250 ppm (%): 0%
[2]
  Infection at BOTRCI P1 at 250 ppm (%): 0%
[3]
  Infection at PUCCRT K1 at 250 ppm (%): 0%
[4]
  Infection at LEPTNO P1 at 250 ppm (%): 15%

## COc1ccc(-c2ccccc2NC(=O)c2cn(C)nc2C(F)F)c(C)c1 [Compound 67.14]
[1]
  Infection at PUCCRT K1 at 250 ppm (%): 0%
[3]
  Infection at PUCCRT K1 at 250 ppm (%): 0%
[4]
  Infection at LEPTNO P1 at 250 ppm (%): 5%

## Cn1cc(C(=O)Nc2ccccc2-c2ccc(Cl)cc2Cl)c(C(F)F)n1 [Compound 67.5]
[1]
  Infection at PUCCRT K1 at 250 ppm (%): 0%
[3]
  Infection at PUCCRT K1 at 250 ppm (%): 0%
[4]
  Infection at LEPTNO P1 at 250 ppm (%): 15%

## Cn1cc(C(=O)Nc2ccccc2-c2cc(Cl)cc(Cl)c2)c(C(F)F)n1 [Compound 67.1]
[1]
  Infection at PUCCRT K1 at 250 ppm (%): 0%
[2]
  Infection at BOTRCI P1 at 250 ppm (%): 1%
[3]
  Infection at PUCCRT K1 at 250 ppm (%): 0%
[4]
  Infection at LEPTNO P1 at 250 ppm (%): 25%

## Cn1cc(C(=O)Nc2ccccc2-c2ccc(Cl)cc2F)c(C(F)F)n1 [Compound 67.7]
[1]
  Infection at PUCCRT K1 at 250 ppm (%): 0%
[5]
  Infection at PYRNTE P1 at 250 ppm (%): 5%
[3]
  Infection at PUCCRT K1 at 250 ppm (%): 0%
[4]
  Infection at LEPTNO P1 at 250 ppm (%): 0%

## Cn1cc(C(=O)Nc2ccccc2-c2ccc(Cl)c(F)c2)c(C(F)F)n1 [Compound 67.12]
[1]
  Infection at PUCCRT K1 at 250 ppm (%): 0%
[2]
  Infection at BOTRCI P1 at 250 ppm (%): 7%
[3]
  Infection at PUCCRT K1 at 250 ppm (%): 0%
[4]
  Infection at LEPTNO P1 at 250 ppm (%): 3%
